Results from patent publication US20120010177A1, “MicroRNA Modulators and Method for Identifying And Using The Same” (The Wistar Institute / North Carolina State University, priority 2008, published 2012).
Read-outs that look alike come from different tables or passages of the source.

Key:
[1] = test system: miR-21; assay: miR-21 luciferase reporter (Luc-miR-21) screening assay in HeLa cells; type: cell-based, human; conditions: HeLa Luc-miR-21 reporter; for increase of the luciferase signal: 48 hours, compared to untreated cells
From the text: (§1) MicroRNA miR-21 was selected as a target miRNA due to its involvement as an anti-apoptotic factor in cancer cells and its elevated levels in various cancers such as breast, ovarian, and lung cancer as well as glioblastoma (Chan, et al. (2005) Cancer Res. 65:6029). Lentiviral reporter constructs for miRNA activity were assembled by introducing the complementary sequences of mature miR-21 (5′-UAGCUUAUCAGACUGAUGUUGA-3′; SEQ ID NO:13), miR-30A (5′-CUUUCAGUCGGAUGUUUGCAGC-3′; SEQ ID NO:14) as a specificity control, and a linker sequence (a previously present multiple-cloning site with no detectable recognition by natural miRNAs) downstream of a luciferase reporter gene as a negative control (FIG. 1).
(§2) Luc-miR-21, Luc-miR-30A, and Luc-linker (control) were, by viral infection, introduced into HeLa cells, which express high levels of miR-21, but only low levels of miR-30A (Cheng, et al. (2005) Nucl. Acids Res. 33:1290).
To illustrate the method of the present invention, a primary screen of >1000 compounds was conducted. The library was composed of a collection of novel compounds and the Library of Pharmacologically Active Compounds (LOPAC library, Sigma-Aldrich, St Louis, Mo.). All compounds were stored at a 10 mM concentration in DMSO to keep the DMSO concentration in the actual screen at 0.1% thereby minimizing toxicity. HeLa cells stably expressing the miR-reporter were treated with DMSO ranging from 0.1-1%. Luciferase signals were determined 48 hours after the treatment.
HeLa cells (2500 cells) were plated in each well of 384-well plate 24 hour before the addition of compounds. Compounds at 10 μM final concentration were added to each well. Luciferase signal were determined 48 hours after compound treatment. Using this screening assay, compound 1 was identified as a miR-21 antagonist.

[2] = test system: Luc-Linker control; assay: Luc-linker control luciferase reporter in HeLa cells; type: cell-based, human; conditions: 10 μM, relative to DMSO control
From the text: as §1, §2
(§3) It was subsequently determined whether Compound 2 was a specific inhibitor of miR-21 or whether it could interfere with the general miRNA biogenesis pathway. Thus, HeLa cells stably expressing both the miR-30 luciferase reporter construct and miR-30 were treated with Compound 2.

[3] = test system: miR-30; assay: miR-30 luciferase reporter in HeLa cells stably expressing miR-30; type: cell-based, human; conditions: HeLa cells stably expressing miR-30 reporter and miR-30, 10 μM
From the text: as §1
The specificity of the reporter system was tested by assaying cells which contained both the Luc-miR-30A reporter and a construct expressing exogenous miR-30.
as §3

[4] = test system: mature miR-21; assay: Quantitative RT-PCR of mature miR-21; type: cell-based, human; conditions: for miR-21 RT PCR* (% Decrease as compared to DMSO control): Table 2; for mature miR-21 expression: HCT116 colon cancer cells and A172 glioblastoma cells, FIG. 6B
From the text: (§4) UNG (Applied Biosystems). […] (Sigma).

[5] = test system: mature miR-30; assay: Quantitative RT-PCR of mature miR-30; type: cell-based, human; conditions: for mature miR-30 level (% of DMSO control): Table 2
From the text: as §4

[6] = test system: mature miR-93; assay: Quantitative RT-PCR of mature miR-93; type: cell-based, human; conditions: for mature miR-93 level, % of DMSO control: Table 2
From the text: as §4

[7] = test system: primary miR-21 (pri-miR-21); assay: Quantitative RT-PCR of primary miR-21; type: cell-based, human; conditions: for primary miR-21 expression: HCT116 colon cancer cells and A172 glioblastoma cells, FIG. 6A
From the text: as §4

[8] = test system: HEK293T (human embryonic kidney) cells; assay: Cell viability assay, HEK293T cells; type: cell-based; conditions: 10 μM Compound
From the text: (§5) In these assays, A172 cells (glioblastoma cells) were contacted with a miR-21 inhibitor either alone or in combination with a conventional antiproliferative agent (i.e., 5-fluorouracil or curcumin). At the concentrations indicated, no toxic effects on HEK293T (human embryonic kidney) cells were observed.

[9] = test system: A172 cells (glioblastoma cells); assay: Cell viability assay, A172 cells, alone or with antiproliferative agent; type: cell-based; conditions: Homo sapiens, A 172
From the text: as §5

[10] = test system: HCT116 colon cancer cells; assay: Cell proliferation of HCT116 cells, drug combinations; type: cell-based, human
From the text: The % activity indicates % live cell activity.

[11] = MDA-MB-231, MCF-7 and A172 cell lines
[12] = HeLa cells, 10 μM, relative to DMSO
[13] = 10 μM Compound + 5FU 0.5 μM, read-out: Cell Viability A172 Cells, Compound + 5FU (0.5 μM)
[14] = 10 μM Compound + Curcumin 10 μM, read-out: Cell Viability A172 Cells, Compound + Curcumin (10 μM)
[15] = 10 μM Compound alone, read-out: Cell Viability A172 Cells, Compound

Structure (SMILES) | miR-21 RT PCR* (% Decrease as compared to DMSO control) [4] | mature miR-30 level (% of DMSO control) [5] | mature miR-93 level, % of DMSO control [6] | Cell Viability HEK293T Cells [8] | viability at 10 µM [9, 13] | viability at 10 µM [9, 14] | viability at 10 µM [9, 15] | further results
Nc1ccc(/N=N/c2ccc([N+](=O)[O-])cc2)cc1 [Compound 1] |  |  |  |  |  |  |  | increase of the luciferase signal ([1]; 10 μM): 251%
C#CCNC(=O)c1ccc(/N=N/c2ccccc2)cc1 [Compound 2, (E)-4-(Phenyldiazenyl)-N-(prop-2-ynyl)benzamide] | 22% | 110% | 115% | 98% | 8% | 12% | 84% | fold increase of the luciferase signal ([1]; 10 μM): 5 fold; increase of the luciferase signal ([1]; 10 μM): 485%; EC50 ([1]; Homo sapiens, concentration dependent, read-out: EC50 of increase of luciferase signal): 2000 nM; luciferase signal in HeLa cells expressing the Luc-Linker control [2]: did not affect the luciferase signal; luciferase signal of miR-30 luciferase reporter [3]: no increase of the luciferase signal was detected; mature miR-21 level [4, 11]: suppressed; level of exogenous mature miR-30 [5, 12]: not reduced; mature miR-30 level [5, 11]: no effect; level of endogenous mature miR-93 [6, 12]: not reduced; mature miR-93 level [6, 11]: no effect; reduction of primary miR-21 (pri-miR-21) level ([7]; HeLa cells, 10 μM, compared to DMSO control): 87%; primary miR-21 level [7, 11]: suppressed; proliferation of HCT116 colon cancer cells, combination with 5-FU ([10]; FIG. 5A): synergistically decrease; proliferation of HCT116 colon cancer cells, combination with Curcumin ([10]; FIG. 5B): synergistically decrease
C#CCNC(=O)c1ccc(NNc2ccccc2)cc1 [Compound 3] | 39% | 85% | 56% | 95% | 52% | 56% | 75% | 
Cn1c2c(c3ccccc3c1=O)C(=O)c1cc3c(cc1-2)OCO3 [Compound 4] | 12% | 136% | 116% | 98% | 62% | 54% | 66% | 
O=c1[nH]cc(F)c(=O)[nH]1 [Compound 5-FU, 5-fluorouracil, reference compound] |  |  |  |  |  |  |  | mature miR-21 expression [4]: increased; primary miR-21 expression [7]: increased
O=C1c2cc3c(cc2-c2[nH]c(=O)c4ccccc4c21)OCO3 [Compound 5] |  |  |  | 79% | 45% | 40% | 70% | 
COc1ccc2c(c1[N+](=O)[O-])CCC1C2CC[C@]2(C)C(=O)CCC12 (stereo partly drawn) [Compound 6] | 34% | 73% | 83% | 97% | 47% | 39% | 71% | 
COc1ccc2c(c1N)CCC1C2CC[C@]2(C)C(=O)CCC12 (stereo partly drawn) [Compound 7] |  |  |  | 86% | 54% | 43% | 87% | 
COc1cc2c(cc1N)C1CC[C@]3(C)C(=O)CCC3C1CC2 (stereo partly drawn) [Compound 8] |  |  |  | 89% | 78% | 57% | 100% | 
COc1cc(/C=C/C(=O)CC(=O)/C=C/c2ccc(O)c(OC)c2)ccc1O [Curcumin, curcumin, reference compound] |  |  |  |  |  |  |  | mature miR-21 expression [4]: increased; primary miR-21 expression [7]: increased
C[C@]12CC[C@@H]3c4ccc(O)cc4CC[C@H]3[C@@H]1CCC2=O [estrone, reference compound] |  |  |  | 85% |  |  |  | 
